Values of other authors as cited in US8709720B2, “Methods and kits for predicting the responsiveness of hepatocellular carcinoma patients to 5-fluorouracil-based combination chemotherapy” (priority 2012, dated 2014).

System: advanced HCC
Settings: advanced HCC patients, prior research / clinical trials

Which response rate does the source give for `COc1cccc2c1C(=O)c1c(O)c3c(c(O)c1C2=O)C[C@@](O)(C(=O)CO)C[C@@H]3O[C@H]1C[C@H](N)[C@H](O)[C@H](C)O1` [doxorubicin] here?
Its response rate is 32%.
